pIC50: −log10 of the molar value.
What was measured:
[1] = tested on: NCI-H292 MTAP deleted cells; assay: Cell growth inhibition (CellTiter-Glo, 144 h), single agents and combinations, CI by Calcusyn; format: cell-based; details: for IC20 / pIC50: Homo sapiens, NCI-H292, single agent; for Max Inh %: single agent
Protocol: NCI-H292 MTAP deleted cell line was purchased from Nanjing Cobioer Biotechnology Co., Ltd. The cells were cultured in a cell culture medium containing 90% RPMI1640 and 10% fetal bovine serum at 37° C. and 5% CO2. Experiments could only be performed on cells in the logarithmic growth phase.
Adjust the cell density in complete medium and seed the cells into 96-well culture plates. Incubate the plates at 37° C. with 5% CO2. Add the two test compounds to the plates using a serial dilution scheme. Continue incubation at 37° C. and 5% CO2 for 144 h. Thaw the CellTiter-Glo (CTG) reagent and equilibrate the plates to room temperature for ˜30 min. Add an equal volume of CTG reagent to each well, shake on an orbital shaker for 5 min to lyse the cells, and allow the signal to stabilize at room temperature for 20 min. Measure luminescence on a plate reader and record the data. Data analysis:
Cell growth inhibition (%)=100−(Lum test drug−Lum culture medium control)/(Lum solvent control−Lum culture medium control)×100%
Calcusyn was used to analyze the combination index (CI) values.

[2] = tested on: human lung cancer PDX model LD1-0025-200729; assay: In vivo pharmacodynamic study in PDX NU/NU mouse model of Osimertinib-resistant non-small cell lung cancer; set-up: species or system NU/NU mice; details: for Tumor volume (mm^3) Mean: each drug 10 mg/kg PO QD; for tumor growth inhibition (TGI) / statistical difference compared with the control group: each drug 10 mg/kg, PO, once daily; for tumor growth inhibition (TGI): 56-day study; for statistical difference compared with the control group: one-way ANOVA
Source text: NU/NU mice, female, 6-8 weeks old, weighing approximately 18-22 g. They were purchased from Beijing Vital River Laboratory Animal Technology Co., Ltd. All experimental mice were kept in the SPF-level animal room of Xi'an LIDE and acclimated for at least 3 days in advance. The lung cancer model tumor-bearing mice were chosen. When a tumor grew to 800-1000 mm^3, the tumor was taken out under sterile conditions and passed it subcutaneously into NU/NU mice. When the average tumor volume reached about 150 mm^3 (100-200 mm^3), 18 tumor-bearing mice were chosen and randomly divided into 6 groups according to the tumor volume. The day of grouping was Day 0, and they were administered according to the following solution:
N: Number of animals; dose volume: 10 μL/g; PO: per os. Administer Osimertinib or Osimertinib solvent first, and administer compound A or compound A solvent after an interval of 1 hour.
The main purpose was to detect the growth inhibition effect or complete cure ability of the test drug compound A as a single drug or in combination with Osimertinib on the human lung cancer PDX model LD1-0025-200729.
Tumor volume and weight measurement of tumor-bearing mice: A vernier caliper was used to measure twice a week. The calculation equation for tumor volume is V=0.5 a×b^2, where a and b represent the major and minor diameters of the tumor, respectively;
Tumor growth inhibition: TGI (%)=[1−(Ti−T0)/(Vi−V0)]×100
Ti is the mean tumor volume after the start of administration in the compound group, T0 is the mean tumor volume at the first dose in the compound group, V0 is the mean tumor volume at the first dose in the vehicle control group, and Vi is the mean tumor volume after the start of administration in the vehicle control group.

[3] = administration time 0 days (grouping)

SMILES	IC20 [1]	pIC50 [1]	Max Inh % [1]	Tumor volume (mm^3) Mean [2, 3]	Tumor volume (mm^3) Mean ([2]; administration time 4 days)	Tumor volume (mm^3) Mean ([2]; administration time 7 days)	Tumor volume (mm^3) Mean ([2]; administration time 11 days)	Tumor volume (mm^3) Mean ([2]; administration time 14 days)	Tumor volume (mm^3) Mean ([2]; administration time 18 days)	Tumor volume (mm^3) Mean ([2]; administration time 21 days)	Tumor volume (mm^3) Mean ([2]; administration time 25 days)	Tumor volume (mm^3) Mean ([2]; administration time 28 days)	Tumor volume (mm^3) Mean ([2]; administration time 32 days)	Tumor volume (mm^3) Mean ([2]; administration time 35 days)	Tumor volume (mm^3) Mean ([2]; administration time 39 days)	Tumor volume (mm^3) Mean ([2]; administration time 42 days)	Tumor volume (mm^3) Mean ([2]; administration time 46 days)	Tumor volume (mm^3) Mean ([2]; administration time 49 days)	Tumor volume (mm^3) Mean ([2]; administration time 53 days)	Tumor volume (mm^3) Mean ([2]; administration time 56 days)	further results
CN(C(=O)c1ccc2nc(N)c3cncn3c2c1)[C@@H]1COc2cc(C(F)(F)F)ccc21 [Compound A, (S)-4-amino-N-methyl-N-(6-(trifluoromethyl)-2,3-dihydrobenzofuran-3-yl)imidazo[1,5-a]quinoxaline-8-carboxamide]	10.7 nM	6.93	71.2%	155.2 mm^3	179.8 mm^3	205.2 mm^3	228.6 mm^3	251.0 mm^3	274.5 mm^3	271.3 mm^3	315.2 mm^3	321.2 mm^3	318.3 mm^3	308.3 mm^3	288.3 mm^3	266.9 mm^3	278.7 mm^3	281.0 mm^3	283.7 mm^3	287.7 mm^3	TGI (%) ([1]; Compound A 3.20 nM, Osimertinib 0 nM): 11.4%; TGI (%) ([1]; Compound A 16.0 nM, Osimertinib 0 nM): 10.8%; TGI (%) ([1]; Compound A 80.0 nM, Osimertinib 0 nM): 45.6%; TGI (%) ([1]; Compound A 400 nM, Osimertinib 0 nM): 51.8%; TGI (%) ([1]; Compound A 2000 nM, Osimertinib 0 nM): 66.6%; TGI (%) ([1]; Compound A 10000 nM, Osimertinib 0 nM): 75.1%; Tumor volume (mm^3) Mean ([2]; administration time 57 days): 288.1 mm^3; tumor growth inhibition (TGI) [2]: 85.8%; statistical difference compared with the control group [2]: statistically significant difference
C[C@H](c1ccc(C(F)(F)F)cn1)N(C(=O)c1cc2c(cc1F)nc(N)c1cncn12)C1CC1 [Compound C]	9.6 nM	7.30	64.6%	–	–	–	–	–	–	–	–	–	–	–	–	–	–	–	–	–	TGI (%) ([1]; Compound C 3.20 nM, Osimertinib 0.0 nM): 4.0%; TGI (%) ([1]; Compound C 16.0 nM, Osimertinib 0.0 nM): 23.7%; TGI (%) ([1]; Compound C 80.0 nM, Osimertinib 0.0 nM): 38.2%; TGI (%) ([1]; Compound C 400 nM, Osimertinib 0.0 nM): 49.5%; TGI (%) ([1]; Compound C 2000 nM, Osimertinib 0.0 nM): 61.0%; TGI (%) ([1]; Compound C 10000 nM, Osimertinib 0.0 nM): 60.4%
C=CC(=O)Nc1cc(Nc2nccc(-c3cn(C)c4ccccc34)n2)c(OC)cc1N(C)CCN(C)C [Osimertinib, reference compound]	18.6 nM	7.30	91.1%	155.7 mm^3	185.9 mm^3	208.3 mm^3	232.2 mm^3	253.6 mm^3	288.4 mm^3	310.4 mm^3	369.2 mm^3	407.1 mm^3	439.2 mm^3	470.2 mm^3	501.3 mm^3	534.5 mm^3	589.4 mm^3	605.3 mm^3	633.7 mm^3	679.4 mm^3	TGI (%) ([1]; Osimertinib 4 nM, Compound A 0 nM): 16.0%; TGI (%) ([1]; Osimertinib 4.1 nM, Compound C 0 nM): 20.5%; TGI (%) ([1]; Osimertinib 12 nM, Compound A 0 nM): 13.4%; TGI (%) ([1]; Osimertinib 12.3 nM, Compound C 0 nM): 18.8%; TGI (%) ([1]; Osimertinib 37 nM, Compound A 0 nM): 35.4%; TGI (%) ([1]; Osimertinib 37.0 nM, Compound C 0 nM): 34.3%; TGI (%) ([1]; Osimertinib 111 nM, Compound A 0 nM): 70.6%; TGI (%) ([1]; Osimertinib 111.1 nM, Compound C 0 nM): 68.4%; TGI (%) ([1]; Osimertinib 333 nM, Compound A 0 nM): 81.8%; TGI (%) ([1]; Osimertinib 333.3 nM, Compound C 0 nM): 81.4%; TGI (%) ([1]; Osimertinib 1000 nM, Compound A 0 nM): 90.9%; TGI (%) ([1]; Osimertinib 1000.0 nM, Compound C 0 nM): 92.3%; Tumor volume (mm^3) Mean ([2]; administration time 57 days): 689.6 mm^3; tumor growth inhibition (TGI) [2]: 43.1%; statistical difference compared with the control group [2]: no statistically significant difference

— patent publication US20260183281A1, “PHARMACEUTICAL COMPOSITION COMPRISING A PRMT5 INHIBITOR AND AN EGFR INHIBITOR” (APEIRON THERAPEUTICS (HONG KONG) LTD., priority 2024, published 2026)
